Measured values reported in patent publication US8212038B2, “Methods and compositions for controlling ectoparasites” (HatchTech Pty Ltd., priority 2003, dated 2012).

What was measured:
lice eggs = assay: Time course in vitro lice egg hatching assay; format: in vivo, Pediculus humanus humanus
[1] = system: Plutella xylostella eggs (Waite strain); assay: Reversal of ovicidal effect by FeSO4 on Plutella xylostella eggs; format: in vivo
Protocol: (§1) Within 24 hours of collection the following experimental design was chosen. Batches of eggs were exposed to 10 mM 6,69-dimethyl-2,29-dipyridyl for 2 seconds while additional batches of eggs were exposed to the solvent only (Methanol) for 2 seconds. All batches of eggs were allowed to air dry for 20 minutes at room temperature. The eggs were then given a 2 second exposure to FeSO4 at either 10, 5 or 1 mM, air dried and put in the incubator at 24° C. and allowed to hatch over the next 6 days. In addition, a positive control of 10 mM 6,69-dimethyl-2,29-dipyridyl was set up in which eggs were exposed to this compound for 2 seconds, air dried and placed in the incubator.
as §1, with “10 mM 5,59-dimethyl-2,29-dipyridyl for 2” for “10 mM 6,69-dimethyl-2,29-dipyridyl for 2”, “FeSO4 at 10, 5” for “FeSO4 at either 10, 5”, “put in an incubator at” for “put in the incubator at”, “of 10 mM, 5,59-dimethyl-2,29-dipyridyl was set” for “of 10 mM 6,69-dimethyl-2,29-dipyridyl was set”

B. ovis eggs = assay: Egg hatching in Bovicola ovis; format: in vivo; conditions: 10 mM
Protocol: B. ovis eggs were collected from the wool of sheep that were infested with this parasite. The eggs were collected using forceps and with the aid of a dissecting microscope and placed in 24 well tissue culture plates in duplicate lots of 10 eggs per replicate. The eggs were then exposed to either methanol alone (control) or the test compounds for either 10 minutes or 1 minute before being removed from the wells and placed into individual glass vials containing a diet at the base of the tube. The tubes were placed in plastic containers containing a salt solution (to keep humidity constant at 68%) and the containers maintained at a temperature 32° C. The eggs were monitored for hatching over the following 12 days and % hatch inhibition determined in comparison to the controls.

[2] = system: Plutella xylostella eggs (Waite strain); assay: Egg hatch of Plutella xylostella after dipping in inhibitor
Protocol: The egg masses were then placed in a humid box at 25 degrees until egg hatch. Control eggs were exposed to absolute methanol as described above. At day 6 post laying the eggs were assessed from the different treatments and the percentage of egg hatch determined relative to the control as shown in Table 9.
Batches of Plutella eggs that were laid on either fine cloth or parafilm were dipped in a specific inhibitor solution for between 2-10 seconds, the excess solution was drained by blotting with dry tissue paper. The egg masses were then placed in a humid box at 25 degrees until egg hatch. Control eggs were exposed to absolute methanol as described above or not treated.
The egg masses were then placed in a humid box at 25 degrees until egg hatch. Control eggs were exposed to absolute ethanol as described above. On day 6 post laying the eggs were assessed from the different treatments and the percentage of egg hatch determined relative to the control.

[3] = system: Helicoverpa armigera eggs (Tatura×Toowoomba strains); assay: Egg hatch of Helicoverpa armigera after exposure to inhibitor; conditions: for % Inhibition of egg hatch relative to control / Number hatched / Number unhatched / % Inhibition of egg hatch relative to the control: day 6 post laying
Protocol: Several hundred Helicoverpa armigera eggs (Tatura×Toowoomba strains) were collected, that had been laid on fine mesh cloth over a 24 hour period.
Batches of Helicoverpa eggs were exposed to a specific inhibitor solution for between 2-10 seconds the excess solution drained by blotting with dry tissue paper. The egg masses were then placed in a humid box at 25 degrees until egg hatch. Control eggs were exposed to absolute methanol as described above.

[4] = per replicate, […], concentration not given
[5] = 10 mM followed by 2 second exposure to 1 mM FeSO4
[6] = 10 mM followed by 2 second exposure to 5 mM FeSO4
[7] = 10 mM followed by 2 second exposure to 10 mM FeSO4
[8] = 10 mM followed by 2 second exposure to MEOH
[9] = 10 mM, 2 seconds, (+ve) control, no second exposure
[10] = 10 and 1 mM, listed as 6,6′ dimethyl-2,2′ dipyridyl
[11] = Example 12, 0.001 mM, day 6 post laying
[12] = Example 12, 0.01 mM, day 6 post laying
[13] = Example 12, 0.1 mM, day 6 post laying
[14] = Example 12, 1 mM, day 6 post laying
[15] = Example 12, 10 mM, day 6 post laying
[16] = Example 13, eggs laid on cloth, 0.01 mM
[17] = Example 13, eggs laid on cloth, 0.1 mM
[18] = Example 13, eggs laid on cloth, 1 mM
[19] = Example 13, eggs laid on cloth, 10 mM
[20] = Example 13, eggs laid on parafilm, 0.01 mM
[21] = Example 13, eggs laid on parafilm, 0.1 mM
[22] = Example 13, eggs laid on parafilm, 1 mM
[23] = Example 13, eggs laid on parafilm, 10 mM

`Cc1cccc(-c2cccc(C)n2)n1` [6,6′-dimethyl-2,2′-dipyridyl] was tested, and the “inhibition of lice egg hatching (in words)” value (lice eggs; in vivo) was “completely inhibited”, the “H (number of eggs successfully hatched)” value (lice eggs; [4]) was 0 and the “Ph (number of eggs partly hatched)” value (lice eggs; [4]) was 0. For the same molecule, the “% Inhibition” value [1, 5] was 3%, the Number hatched [1, 5] was 33 and the Number unhatched [1, 5] was 1. The “% Inhibition” value [1, 6] was 0%, the Number hatched [1, 6] was 25 and the Number unhatched [1, 6] was 0. For the same molecule, the “% Inhibition” value [1, 7] was 38%, the Number hatched [1, 7] was 12 and the Number unhatched [1, 7] was 19. The “% Inhibition” value [1, 8] was 90%, the Number hatched [1, 8] was 3 and the Number unhatched [1, 8] was 28. The “effect of added Fe (FeSO4) on the ovicidal effect (in words)” value ([1]; 10 mM inhibitor, then FeSO4 10, 5 or 1 mM) was “able to reverse the effects”, the “% Inhibition” value [1, 9] was 100% and the Number hatched [1, 9] was 0. For the same molecule, the Number unhatched [1, 9] was 44, the “inhibition of egg hatching (in words)” value (B. ovis eggs; 10 or 1 minute exposure) was “completely inhibited” and the “% Inhibition” value (B. ovis eggs; 1 minute exposure) was 100%. The “% Inhibition” value (B. ovis eggs; 10 minute exposure) was 100%, the “inhibition of egg hatching in Plutella xylostella (in words)” value ([2]; 0.1 and 0.01 mM) was “no observable effects on egg hatching” and the “inhibition of egg hatching in Plutella xylostella (in words)” value [2, 10] was “strong ovicidal effects”. The “inhibition of egg hatching in Plutella xylostella (in words)” value ([2]; 10 and 1 mM, listed as 6,6′-dimethyl-2,2′ dipyridyl) was “effective at inhibiting egg hatching”, the “% Inhibition of egg hatch relative to control” value [2, 11] was 0% and the Number hatched [2, 11] was 11. For the same molecule, the Number unhatched [2, 11] was 6, the “% Inhibition of egg hatch relative to control” value [2, 12] was 0% and the Number hatched [2, 12] was 13. For the same molecule, the Number unhatched [2, 12] was 7, the “% Inhibition of egg hatch relative to control” value [2, 13] was 0% and the Number hatched [2, 13] was 23. The Number unhatched [2, 13] was 29, the “% Inhibition of egg hatch relative to control” value [2, 14] was 100% and the Number hatched [2, 14] was 0. For the same molecule, the Number unhatched [2, 14] was 26, the “% Inhibition of egg hatch relative to control” value [2, 15] was 100% and the Number hatched [2, 15] was 0. The Number unhatched [2, 15] was 79, the “% Inhibition of egg hatch relative to controls” value [2, 16] was 12% and the Number hatched [2, 16] was 23. The Number unhatched [2, 16] was 4, the “% Inhibition of egg hatch relative to controls” value [2, 17] was 0% and the Number hatched [2, 17] was 49. The Number unhatched [2, 17] was 49, the “% Inhibition of egg hatch relative to controls” value [2, 18] was 100% and the Number hatched [2, 18] was 0. The Number unhatched [2, 18] was 23, the “% Inhibition of egg hatch relative to controls” value [2, 19] was 100% and the Number hatched [2, 19] was 0. The Number unhatched [2, 19] was 53, the “% Inhibition of egg hatch relative to controls” value [2, 20] was 0% and the Number hatched [2, 20] was 92. The Number unhatched [2, 20] was 4, the “% Inhibition of egg hatch relative to controls” value [2, 21] was 7% and the Number hatched [2, 21] was 65. For the same molecule, the Number unhatched [2, 21] was 70, the “% Inhibition of egg hatch relative to controls” value [2, 22] was 100% and the Number hatched [2, 22] was 0. The Number unhatched [2, 22] was 63, the “% Inhibition of egg hatch relative to controls” value [2, 23] was 100% and the Number hatched [2, 23] was 0. For the same molecule, the “inhibition of egg hatching of Helicoverpa armigera (in words)” value ([3]; 0.1 mM) was “no inhibition of egg hatching”, the “inhibition of egg hatching of Helicoverpa armigera (in words)” value ([3]; 10 and 1 mM) was “significantly inhibit the egg hatching” and the “inhibition of egg hatching of Helicoverpa armigera (in words)” value [3, 10] was “significantly inhibit egg hatching”. For the same molecule, the “% Inhibition of egg hatch relative to control” value ([3]; Example 14, 0.001 mM) was 0%, the “% Inhibition of egg hatch relative to control” value ([3]; Example 14, 0.01 mM) was 0% and the “% Inhibition of egg hatch relative to control” value ([3]; Example 14, 0.1 mM) was 0%. The “% Inhibition of egg hatch relative to control” value ([3]; Example 14, 1 mM) was 97%, the Number hatched ([3]; Example 14, 1 mM) was 4 and the Number unhatched ([3]; Example 14, 1 mM) was 140. The “% Inhibition of egg hatch relative to control” value ([3]; Example 14, 10 mM) was 94%, the Number hatched ([3]; Example 14, 10 mM) was 7 and the Number unhatched ([3]; Example 14, 10 mM) was 98. The “% Inhibition of egg hatch relative to the control” value ([3]; Example 15, 0.1 mM) was 0%, the Number hatched ([3]; Example 15, 0.1 mM) was 70 and the Number unhatched ([3]; Example 15, 0.1 mM) was 0. For the same molecule, the “% Inhibition of egg hatch relative to the control” value ([3]; Example 15, 1 mM) was 97%, the Number hatched ([3]; Example 15, 1 mM) was 2 and the Number unhatched ([3]; Example 15, 1 mM) was 61. The “% Inhibition of egg hatch relative to the control” value ([3]; Example 15, 10 mM) was 94%, the Number hatched ([3]; Example 15, 10 mM) was 3 and the Number unhatched ([3]; Example 15, 10 mM) was 48. For the same molecule, the “inhibition of egg hatching of Helicoverpa armigera (in words)” value ([3]; concentrations below 1 mM) was “No inhibition”.
